Legend:
[1] = molecular target: T1, rat A1 Adenosine receptor (Rattus norvegicus, UniProt P25099); experiment: Rat A1 adenosine receptor binding, [3H]-DPCPX, rat brain membranes; conditions: read-out: rA1 (Ki)
T1 construct: from tissue; host or cells: whole brain (minus brainstem, striatum and cerebellum) of male Wistar rats
T1 sequence (P25099 1-326): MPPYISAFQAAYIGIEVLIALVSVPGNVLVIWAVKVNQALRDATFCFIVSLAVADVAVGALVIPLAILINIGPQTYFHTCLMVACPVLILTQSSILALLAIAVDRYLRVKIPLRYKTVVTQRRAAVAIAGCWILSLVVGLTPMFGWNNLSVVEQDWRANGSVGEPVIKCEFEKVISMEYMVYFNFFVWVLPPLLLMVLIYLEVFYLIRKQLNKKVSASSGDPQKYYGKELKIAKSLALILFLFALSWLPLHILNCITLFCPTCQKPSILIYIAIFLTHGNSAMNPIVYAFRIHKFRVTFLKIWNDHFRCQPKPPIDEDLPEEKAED
Protocol: Membrane preparations: Male Wistar rats (200-250 g) can be decapitated and the whole brain (minug brainstem, striatum and cerebellum) dissected on ice. The brain tissues can be disrupted in a Polytron (setting 5) in 20 vols of 50 mM Tris HCl, pH 7.4. […] After 30 min incubation at 37° C., the membranes can be centrifuged and the pellets stored at −70° C. Striatal tissues can be homogenized with a Polytron in 25 vol of 50 mM Tris HCl buffer containing 10 mM MgCl2 pH 7.4. […] After 30 min incubation at 37° C., membranes can be centrifuged and the pellet stored at −70° C. […] Incubation times are typically 120 min at 25° C.
Radioligand binding assays may comprise the following: Binding of [^3H]-SCH 58261 (5-amino-7-(2-phenylethyl)-2-(2-furyl)-pyrazolo[4,3-e]-1,2,4-triazolo[1,5-c]pyrimidine) to rat striatal membranes (100 ug of protein/assay) can be performed according to methods described in Zocchi et al., 1996, J. Pharm. and Exper. […] In competition studies, at least 6-8 different concentrations of examined compounds should be used. […] Incubation time is typically 60 min at 25° C. Bound and free radioactivity can be separated by filtering the assay mixture through Whatman GF/B glass-fiber filters using a Brandel cell harvester (Gaithersburg, Md., USA). […] The filter bound radioactivity can be measured, for example, by liquid scintillation spectrometry. […]

[2] = test system: Human Colon Carcinoma HT29; experiment: MTT growth inhibitory assay, HT29; assay type: cell-based; conditions: HT29 cells
Protocol: (§1) Interpretation of the EF is dependent upon the concentrations of A3 receptor antagonist tested. For example, when using very low concentrations of A3 receptor antagonist, any EF above 1.0 is synergistic if the A3 receptor antagonist concentration is below the threshold of cell growth inhibition.
(§2) The cells are sub-cultured twice a week.
(§3) Vinblastine sulfate salt was obtained from Sigma Chemical Co., (V1377). Irinotecan was diluted with culture medium. All other agents were dissolved in 100% DMSO at appropriate concentrations. The DMSO stock solutions were diluted 100-fold with growth medium so that the final DMSO concentration was 1%.

[3] = test system: Human Lung Carcinoma SKMES; experiment: MTT growth inhibitory assay, SKMES; assay type: cell-based; conditions: SKMES cells, A3 antagonist at 0.5 μg/ml
Protocol: as §1, §2, §3

[4] = test system: Human Melanoma A375; experiment: MTT growth inhibitory assay, A375; conditions: A375 cells
[5] = test system: Human Pancreatic Cancer Panc-1; experiment: MTT growth inhibitory assay, Panc-1; assay type: cell-based; conditions: Panc-1 cells, A3 antagonist at 0.5 μg/ml
Protocol: as §1, §2, §3

[6] = molecular target: T2, rat A2A Adenosine receptor (Rattus norvegicus, UniProt P30543); experiment: Rat A2A adenosine receptor binding, [3H]-SCH 58261, rat striatal membranes; conditions: read-out: rA2A (Ki)
T2 construct: from tissue; host or cells: rat striatum (male Wistar rats)
T2 sequence (P30543 whole entry): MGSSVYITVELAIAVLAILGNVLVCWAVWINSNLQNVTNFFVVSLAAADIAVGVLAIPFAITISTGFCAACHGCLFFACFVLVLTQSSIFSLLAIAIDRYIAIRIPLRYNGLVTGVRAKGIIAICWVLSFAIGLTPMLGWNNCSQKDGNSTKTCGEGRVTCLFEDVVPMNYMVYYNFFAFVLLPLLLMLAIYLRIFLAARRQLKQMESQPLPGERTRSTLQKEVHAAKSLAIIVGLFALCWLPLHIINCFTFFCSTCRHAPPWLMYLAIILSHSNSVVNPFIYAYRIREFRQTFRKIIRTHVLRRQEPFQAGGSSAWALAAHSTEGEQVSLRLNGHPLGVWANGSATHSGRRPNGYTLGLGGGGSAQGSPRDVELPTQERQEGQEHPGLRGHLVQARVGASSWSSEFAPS

[7] = enhancement of paclitaxel IC50, A3 antagonist at 0.5 μg/ml

CN(C)c1ccc(NC(=O)Nc2nc3nn(C)cc3c3nc(-c4ccco4)nn23)cc1 [IL-11, N-1-(4-dimethylamino-phenyl)-N′-5-[8-methyl-2-(2-furyl)-pyrazolo[4,3-e]1,2,4-triazolo[1,5-c]pyrimidine]-urea]
Ki [1]: > 10 µM
Enhancement Factor ([2]; enhancement of docetaxel IC50, A3 antagonist at 0.05 μg/ml): 6.4
Enhancement Factor ([2]; enhancement of doxorubicin IC50, A3 antagonist at 0.5 μg/ml): 1.2
Enhancement Factor ([2]; enhancement of irinotecan IC50, A3 antagonist at 0.5 μg/ml): 1.1
Enhancement Factor [2, 7]: 2.5
Enhancement Factor ([3]; enhancement of docetaxel IC50): 1.9
Enhancement Factor ([3]; enhancement of irinotecan HCL IC50): 1.9
Enhancement Factor ([3]; enhancement of paclitaxel IC50): 4.2
Enhancement Factor ([3]; enhancement of vinblastine IC50): 1.6
Enhancement Factor ([4]; enhancement of docetaxel IC50, A3 antagonist at 0.5 μg/ml): 5.3
Enhancement Factor ([4]; enhancement of docetaxel IC50, A3 antagonist at 5 μg/ml): 6.5
Enhancement Factor [4, 7]: 3.1
Enhancement Factor ([4]; enhancement of paclitaxel IC50, A3 antagonist at 5 μg/ml): 9.6
Enhancement Factor ([5]; enhancement of docetaxel IC50): 1.4
Enhancement Factor ([5]; enhancement of paclitaxel IC50): 1.8
Ki [6]: > 10 µM
